Results taken from patent US9540356B2 (priority 2012, dated 2017).

Key:
[1] = tested on: HeLa cells; format: cell-based, human
[2] = tested on: retrograde transport of Shiga toxin subunit B (StxB); format: cell-based
[3] = tested on: HeLa cells; assay: cells; format: cell-based; conditions: Homo sapiens

SMILES: CN1c2ccccc2C(=O)N(c2ccccc2)C1c1ccc(-c2ccco2)s1 (stereo not drawn) [Compound 40, 2-(5-(Furan-2-yl)thiophen-2-yl)-1-methyl-3-phenyl-2,3-dihydroquinazolin-4(1H)-one]
- R (Stx), protective index [1]: 27
- retrograde transport, % control [2]: 5.3%
- IC50 [3]: 1.5 µM
